This note sets out measurements from PMC10465233, “Lys-urea-Aad, Lys-urea-Cmc and Lys-urea-Cms as potential pharmacophores for the design of PSMA-targeted radioligands to reduce off-target uptake in kidneys and salivary glands” (Theranostics, 2023).

By Ki is commonly meant a measure of affinity in units of concentration, obtained from inhibition or displacement. A high value points to lower affinity.

The target of this experiment is T1, PSMA (Homo sapiens, UniProt Q04609).
T1 construct: host or cells: LNCaP prostate cancer cells
In words: In vitro competition binding assay, LNCaP cells, [^18F]DCFPyL as radioligand. How it is done:
The LNCaP cells obtained from ATCC (via Cedarlane, Burlington, Canada) were cultured in RPMI 1640 medium supplemented with 10% FBS, penicillin (100 U/mL) and streptomycin (100 μg/mL) at 37 °C in a Panasonic Healthcare (Tokyo, Japan) MCO-19AIC humidified incubator containing 5% CO2. The cells were confirmed pathogen free by the IMPACT Rodent Pathogen Test (IDEXX BioAnalytics). Cells grown to 80-90% confluence were then washed with sterile PBS and collected after trypsinization. The cell concentration was counted in triplicate using a hemocytometer and a manual laboratory counter.
In vitro competition binding assays were conducted as previously reported using LNCaP prostate cancer cells and [^18F]DCFPyL as the radioligand [10]-[12],[14]. Briefly, LNCaP cells (400,000/well) were plated onto a 24-well poly-D-lysine coated plate for 48 h. Growth media was removed and replaced with HEPES buffered saline (50 mM HEPES, pH 7.5, 0.9% sodium chloride) and the cells were incubated for 1 h at 37 °C. [^18F]DCFPyL (0.1 nM) was added to each well (in triplicate) containing various concentrations (0.5 mM - 0.05 nM) of tested ligands. Non-specific binding was determined in the presence of 10 µM non-radiolabeled DCFPyL. The assay mixtures were further incubated for 1 h at 37 °C with gentle agitation. Then, the buffer and hot ligand were removed, and cells were washed twice with cold HEPES buffered saline. To harvest the cells, 400 µL of 0.25% trypsin solution was added to each well. Radioactivity was measured on an automatic gamma counter. Nonlinear regression analyses and Ki calculations were performed using the GraphPad Prism 7 software.

T1 sequence (Q04609 whole entry): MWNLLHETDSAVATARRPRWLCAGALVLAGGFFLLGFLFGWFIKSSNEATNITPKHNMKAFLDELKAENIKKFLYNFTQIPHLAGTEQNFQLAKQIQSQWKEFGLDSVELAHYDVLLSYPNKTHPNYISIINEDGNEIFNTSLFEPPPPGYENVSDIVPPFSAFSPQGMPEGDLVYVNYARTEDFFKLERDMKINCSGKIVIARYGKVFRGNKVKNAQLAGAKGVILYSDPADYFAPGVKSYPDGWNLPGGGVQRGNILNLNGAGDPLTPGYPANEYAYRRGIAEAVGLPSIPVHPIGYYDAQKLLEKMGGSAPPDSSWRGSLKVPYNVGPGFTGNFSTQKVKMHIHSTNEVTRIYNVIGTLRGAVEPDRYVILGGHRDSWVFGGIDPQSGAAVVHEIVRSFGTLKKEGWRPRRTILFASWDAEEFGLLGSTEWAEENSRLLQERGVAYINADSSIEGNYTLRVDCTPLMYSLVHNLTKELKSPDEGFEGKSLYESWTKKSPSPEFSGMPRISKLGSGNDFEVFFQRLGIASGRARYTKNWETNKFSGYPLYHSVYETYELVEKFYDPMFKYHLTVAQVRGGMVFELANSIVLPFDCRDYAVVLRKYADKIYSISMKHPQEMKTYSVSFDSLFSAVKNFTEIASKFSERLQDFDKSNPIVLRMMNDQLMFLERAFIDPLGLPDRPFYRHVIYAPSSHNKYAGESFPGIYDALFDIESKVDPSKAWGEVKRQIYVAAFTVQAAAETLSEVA

`COc1ccc(CCCC(=O)NCC(=O)N[C@@H](CCCCNC(=O)CN2CCN(CC(=O)[O-])CCN(CC(=O)[O-])CCN(CC(=O)[O-])CC2)C(=O)NC[C@H]2CC[C@H](C(=O)N[C@@H](Cc3c4ccccc4cc4ccccc34)C(=O)NCCCC[C@H](NC(=O)N[C@@H](COCC(=O)O)C(=O)O)C(=O)O)CC2)cc1.[Lu+3]` [Lu-HTK04028] displayed a Ki of 13.9 ± 3.2 nM.

`COc1ccc(CCCC(=O)NCC(=O)N[C@@H](CCCCNC(=O)CN2CCN(CC(=O)[O-])CCN(CC(=O)[O-])CCN(CC(=O)[O-])CC2)C(=O)NC[C@H]2CC[C@H](C(=O)N[C@@H](Cc3c4ccccc4cc4ccccc34)C(=O)NCCCC[C@H](NC(=O)N[C@@H](CSCC(=O)O)C(=O)O)C(=O)O)CC2)cc1.[Lu+3]` [Lu-HTK04048] displayed a Ki of 1.4 ± 1 nM. In turn, `COc1ccc(CCCC(=O)NCC(=O)N[C@@H](CCCCNC(=O)CN2CCN(CC(=O)[O-])CCN(CC(=O)[O-])CCN(CC(=O)[O-])CC2)C(=O)NC[C@H]2CC[C@H](C(=O)N[C@@H](Cc3c4ccccc4cc4ccccc34)C(=O)NCCCC[C@H](NC(=O)N[C@@H](CCCC(=O)O)C(=O)O)C(=O)O)CC2)cc1.[Lu+3]` [Lu-HTK03170] displayed a Ki of 1.6 ± 0.4 nM. `O=C([O-])CN1CCN(CC(=O)[O-])CCN(CC(=O)NCC2CCC(C(=O)NC(Cc3c4ccccc4cc4ccccc34)C(=O)NCCCCC(NC(=O)NC(CSCC(=O)O)C(=O)O)C(=O)O)CC2)CCN(CC(=O)[O-])CC1.[Ga+3]` (stereo not shown) [Ga-HTK03177]: the Ki worked out at 5 ± 2.4 nM. This Ki is about 3.1-fold higher than that of the molecule before.
